Assay results published in ChEMBL document CHEMBL4673280, “Discovery and SAR studies of 2-alkyl-3-phenyl-2,4,5,6,7,8-hexahydropyrazolo[3,4-d]azepines as 5-HT inhibitors leading to the identification of a clinical candidate” (Bioorg Med Chem Lett, 2021).

How the values were obtained:
[1] = target: T1, Adrenergic receptor alpha-1 (Rattus norvegicus, UniProt P15823+P23944+P43140); experiment: Displacement of […] from alpha1 adrenergic receptor in rat cortex membrane incubated for 60 mins by competitive radioligand binding assay; format: cell membranes
T1 sequence (P15823 whole entry): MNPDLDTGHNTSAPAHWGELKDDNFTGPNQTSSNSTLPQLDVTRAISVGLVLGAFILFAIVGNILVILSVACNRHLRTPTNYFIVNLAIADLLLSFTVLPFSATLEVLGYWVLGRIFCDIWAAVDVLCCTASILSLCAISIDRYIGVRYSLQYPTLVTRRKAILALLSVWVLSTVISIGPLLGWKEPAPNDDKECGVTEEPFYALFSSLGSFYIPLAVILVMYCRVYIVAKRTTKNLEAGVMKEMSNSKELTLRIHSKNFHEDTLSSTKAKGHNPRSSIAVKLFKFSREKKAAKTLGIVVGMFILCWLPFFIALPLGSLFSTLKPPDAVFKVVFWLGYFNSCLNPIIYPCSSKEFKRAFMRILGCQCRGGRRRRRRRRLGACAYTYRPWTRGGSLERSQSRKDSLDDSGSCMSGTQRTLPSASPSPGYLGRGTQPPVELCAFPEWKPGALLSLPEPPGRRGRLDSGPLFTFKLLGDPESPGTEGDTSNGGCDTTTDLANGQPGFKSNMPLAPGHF
T1 sequence (P23944 whole entry): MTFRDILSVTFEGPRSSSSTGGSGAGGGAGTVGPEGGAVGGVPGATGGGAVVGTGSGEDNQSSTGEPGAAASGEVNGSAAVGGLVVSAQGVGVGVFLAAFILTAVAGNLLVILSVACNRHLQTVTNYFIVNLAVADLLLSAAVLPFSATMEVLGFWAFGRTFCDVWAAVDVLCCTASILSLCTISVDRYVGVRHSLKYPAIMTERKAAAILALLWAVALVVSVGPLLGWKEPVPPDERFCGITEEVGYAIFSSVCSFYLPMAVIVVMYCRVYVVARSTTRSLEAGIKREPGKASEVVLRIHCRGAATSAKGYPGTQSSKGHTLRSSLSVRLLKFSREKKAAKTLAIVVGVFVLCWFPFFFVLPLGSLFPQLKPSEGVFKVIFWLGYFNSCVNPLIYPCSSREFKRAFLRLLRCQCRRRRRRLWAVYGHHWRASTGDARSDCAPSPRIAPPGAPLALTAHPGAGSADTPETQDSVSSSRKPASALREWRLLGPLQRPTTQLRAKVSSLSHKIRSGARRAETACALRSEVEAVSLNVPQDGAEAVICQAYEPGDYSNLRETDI
T1 sequence (P43140 whole entry): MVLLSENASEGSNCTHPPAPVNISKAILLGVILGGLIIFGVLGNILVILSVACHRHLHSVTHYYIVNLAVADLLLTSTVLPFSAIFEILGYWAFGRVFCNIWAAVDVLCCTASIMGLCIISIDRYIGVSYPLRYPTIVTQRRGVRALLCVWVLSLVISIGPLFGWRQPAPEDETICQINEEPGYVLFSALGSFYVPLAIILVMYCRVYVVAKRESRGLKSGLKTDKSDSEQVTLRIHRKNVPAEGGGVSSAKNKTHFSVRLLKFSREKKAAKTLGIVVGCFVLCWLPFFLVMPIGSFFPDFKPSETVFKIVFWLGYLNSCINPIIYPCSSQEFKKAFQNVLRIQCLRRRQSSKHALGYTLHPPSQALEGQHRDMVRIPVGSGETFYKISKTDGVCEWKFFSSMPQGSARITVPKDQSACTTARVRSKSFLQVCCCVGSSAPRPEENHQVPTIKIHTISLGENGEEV

[2] = target: T2, 5-hydroxytryptamine receptor 2C (Homo sapiens, UniProt P28335); experiment: Displacement of [3H]-ketanserin from human 5-HT2C receptor by competitive radioligand binding assay
T2 sequence (P28335 whole entry): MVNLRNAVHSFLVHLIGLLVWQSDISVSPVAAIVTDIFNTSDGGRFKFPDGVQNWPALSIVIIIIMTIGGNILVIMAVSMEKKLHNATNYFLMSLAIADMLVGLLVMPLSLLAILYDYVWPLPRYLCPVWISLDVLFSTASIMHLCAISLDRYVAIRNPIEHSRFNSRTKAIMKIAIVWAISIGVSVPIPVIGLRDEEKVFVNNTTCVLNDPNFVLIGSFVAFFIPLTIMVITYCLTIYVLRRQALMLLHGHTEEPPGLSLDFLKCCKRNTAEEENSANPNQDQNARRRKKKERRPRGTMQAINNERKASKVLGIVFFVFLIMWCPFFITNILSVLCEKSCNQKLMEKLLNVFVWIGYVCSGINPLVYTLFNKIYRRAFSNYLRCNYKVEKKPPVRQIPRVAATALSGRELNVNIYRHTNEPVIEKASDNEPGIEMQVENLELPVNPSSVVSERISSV

[3] = target: 5-hydroxytryptamine receptor 2B (Homo sapiens, UniProt P41595); experiment: Displacement of [3H]-ketanserin from human 5-HT2B receptor by competitive radioligand binding assay
Sequence of 5-hydroxytryptamine receptor 2B (P41595 whole entry): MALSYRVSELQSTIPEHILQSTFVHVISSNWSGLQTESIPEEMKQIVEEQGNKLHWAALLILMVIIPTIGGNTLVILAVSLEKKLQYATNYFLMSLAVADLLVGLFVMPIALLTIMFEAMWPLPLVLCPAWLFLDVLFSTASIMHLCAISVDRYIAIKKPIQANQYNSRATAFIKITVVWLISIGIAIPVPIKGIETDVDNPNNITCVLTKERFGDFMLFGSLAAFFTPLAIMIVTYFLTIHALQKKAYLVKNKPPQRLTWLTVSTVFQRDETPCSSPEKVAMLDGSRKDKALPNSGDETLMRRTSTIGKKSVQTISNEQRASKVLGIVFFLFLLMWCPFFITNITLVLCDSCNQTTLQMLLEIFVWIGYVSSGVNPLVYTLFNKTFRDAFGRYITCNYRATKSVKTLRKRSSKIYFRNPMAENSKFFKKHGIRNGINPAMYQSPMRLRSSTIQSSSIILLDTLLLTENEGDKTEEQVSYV

[4] = target: 5-hydroxytryptamine receptor 2A (Homo sapiens, UniProt P28223); experiment: Displacement of [3H]-ketanserin from human 5-HT2A receptor by competitive radioligand binding assay
Sequence of 5-hydroxytryptamine receptor 2A (P28223 whole entry): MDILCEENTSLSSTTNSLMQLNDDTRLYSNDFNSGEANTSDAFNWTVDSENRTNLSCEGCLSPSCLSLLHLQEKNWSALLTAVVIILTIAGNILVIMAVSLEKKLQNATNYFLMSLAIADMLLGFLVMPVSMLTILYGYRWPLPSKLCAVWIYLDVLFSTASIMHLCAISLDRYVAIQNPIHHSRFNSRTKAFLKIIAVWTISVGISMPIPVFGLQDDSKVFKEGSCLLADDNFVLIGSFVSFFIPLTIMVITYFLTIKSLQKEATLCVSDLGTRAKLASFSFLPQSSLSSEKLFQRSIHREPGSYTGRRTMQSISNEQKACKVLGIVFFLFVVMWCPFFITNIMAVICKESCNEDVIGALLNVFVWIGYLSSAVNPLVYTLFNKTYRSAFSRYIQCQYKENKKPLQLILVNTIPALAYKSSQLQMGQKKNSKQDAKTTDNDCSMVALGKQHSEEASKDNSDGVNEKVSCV

[5] = target: 5-hydroxytryptamine receptor 7 (Rattus norvegicus, UniProt P32305); experiment: Displacement of [3H]-CT from rat 5-HT7 receptor expressed in HEK293 cells by competitive radioligand binding assay; format: cell-based
Sequence of 5-hydroxytryptamine receptor 7 (P32305 whole entry): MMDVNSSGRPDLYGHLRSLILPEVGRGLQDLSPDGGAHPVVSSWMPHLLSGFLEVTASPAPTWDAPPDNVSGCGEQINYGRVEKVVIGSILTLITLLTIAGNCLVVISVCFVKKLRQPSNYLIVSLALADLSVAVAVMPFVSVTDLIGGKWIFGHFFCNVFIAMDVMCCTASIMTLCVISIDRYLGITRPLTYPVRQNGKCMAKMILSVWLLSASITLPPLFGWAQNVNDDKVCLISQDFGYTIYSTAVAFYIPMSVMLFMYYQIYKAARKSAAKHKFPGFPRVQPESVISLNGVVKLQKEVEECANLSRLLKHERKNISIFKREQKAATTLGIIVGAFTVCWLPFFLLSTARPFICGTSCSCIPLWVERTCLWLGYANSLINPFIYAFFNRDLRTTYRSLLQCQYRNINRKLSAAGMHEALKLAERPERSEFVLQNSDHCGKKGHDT

Structure (SMILES) | Ki [1] [µM] | Ki [2] [µM] | Ki [3] [µM] | Ki [4] [µM] | Ki [5] [µM]
CNc1ccc(-c2c3c(nn2C(C)C)CCNCC3)cc1 | 0.016 | 0.21 | 0.024 | 0.003 | 0.04
CC(C)n1nc2c(c1-c1ccc(C(F)(F)F)cc1)CCNCC2 | 0.13 | – | 0.005 | 0.002 | 0.015
